Data set [1] in a line: PPI half-life (serum concentration profile), n of 1 studies. The format is in vivo, human. The note with it: for half-life: human, serum, Day 1, n of 1. The text has this:
The measure of a PPIs activity can be predicted by looking at AUC above 1 micromole. The elimination rate (Kel) is the only variable that can be changed to increase the AUC for a given PPI. Half-life=0.693/Kel
These are all n of 1 studies all performed on the same subject. (Unless otherwise stated, 1.68 g NaHCO3 was used as buffering agent)

For data set [2], the target named is T1, H+, K+-ATPase (Rattus norvegicus, UniProt P09626).
T1 construct: host or cells: rats (in vivo treatment; endogenous gastric enzyme)
T1 sequence (P09626 whole entry): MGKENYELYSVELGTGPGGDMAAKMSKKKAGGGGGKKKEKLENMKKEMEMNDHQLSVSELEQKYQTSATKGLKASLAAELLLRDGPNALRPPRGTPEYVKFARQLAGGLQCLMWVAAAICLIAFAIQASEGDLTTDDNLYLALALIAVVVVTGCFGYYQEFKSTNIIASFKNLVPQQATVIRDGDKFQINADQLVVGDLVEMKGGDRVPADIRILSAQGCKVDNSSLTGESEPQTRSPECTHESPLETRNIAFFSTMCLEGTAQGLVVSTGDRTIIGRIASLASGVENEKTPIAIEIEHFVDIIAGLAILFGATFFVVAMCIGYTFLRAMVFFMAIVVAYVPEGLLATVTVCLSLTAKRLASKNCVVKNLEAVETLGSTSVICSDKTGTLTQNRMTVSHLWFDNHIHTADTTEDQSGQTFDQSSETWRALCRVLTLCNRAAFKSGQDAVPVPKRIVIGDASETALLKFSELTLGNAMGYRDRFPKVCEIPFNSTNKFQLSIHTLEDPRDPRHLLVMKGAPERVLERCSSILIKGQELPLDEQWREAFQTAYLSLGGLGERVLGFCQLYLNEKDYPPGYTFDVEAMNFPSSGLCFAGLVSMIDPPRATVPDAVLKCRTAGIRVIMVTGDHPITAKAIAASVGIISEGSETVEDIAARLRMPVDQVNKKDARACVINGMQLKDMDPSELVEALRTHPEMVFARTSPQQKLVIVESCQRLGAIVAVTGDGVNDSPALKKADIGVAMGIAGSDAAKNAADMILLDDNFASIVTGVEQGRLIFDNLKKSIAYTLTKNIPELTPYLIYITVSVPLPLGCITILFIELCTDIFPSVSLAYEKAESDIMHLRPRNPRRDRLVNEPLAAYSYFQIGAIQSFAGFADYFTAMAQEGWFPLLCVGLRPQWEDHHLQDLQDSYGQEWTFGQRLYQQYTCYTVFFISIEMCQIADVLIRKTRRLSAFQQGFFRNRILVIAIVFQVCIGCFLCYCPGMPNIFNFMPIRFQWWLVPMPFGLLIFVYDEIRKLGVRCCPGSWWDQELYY
T1 sequence (P18598 whole entry partner): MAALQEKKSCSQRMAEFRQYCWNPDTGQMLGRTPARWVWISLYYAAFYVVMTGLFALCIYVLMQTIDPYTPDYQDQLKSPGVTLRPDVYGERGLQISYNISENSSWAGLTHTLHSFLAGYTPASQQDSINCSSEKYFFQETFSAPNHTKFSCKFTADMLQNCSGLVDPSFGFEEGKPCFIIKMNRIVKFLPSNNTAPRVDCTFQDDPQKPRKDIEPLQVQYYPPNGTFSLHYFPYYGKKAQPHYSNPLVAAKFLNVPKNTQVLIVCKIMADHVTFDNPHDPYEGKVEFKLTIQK
The settings on record: cited from earlier work.

Where [3] appears, read: oral, 120 mg, IR 120 mg given alone.
The mark [4] stands for this setting: oral, given as OME-IR 120 mg+Tenatoprazole IR 40 mg+Cimetidine 200 mg.
Setting [5] is: oral, given as OME-IR 120 mg+Tenatoprazole IR 40 mg.

Where two headings read alike, the source gives them in different places.

This is an account of results in patent publication US20080103169A1, “COMPOSITIONS COMPRISING ACID LABILE PROTON PUMP INHIBITING AGENTS, AT LEAST ONE OTHER […] ACTIVE AGENT AND METHODS OF USING SAME” (priority 2006, published 2008).

In the case of `COc1ccc2nc([S@@+]([O-])Cc3ncc(C)c(OC)c3C)[nH]c2c1` [esomeprazole], in data set [1] (40 mg, 40 mg given alone), the half-life is 1.4 h.
`COc1ccc2[nH]c([S+]([O-])Cc3ncc(C)c(OC)c3C)nc2c1` (stereo not shown) [omeprazole, 5-methoxy-2-[[(4-methoxy-3,5-dimethyl-2-pyridinyl)methyl]sulfinyl]-1H benzimidazole]: the “effect of omeprazole on H+, K+-ATPase activity” value in data set [2] (rats pretreated with cimetidine, compared to control (no pretreatment)) is “much reduced effect”; in data set [2] (rats pretreated with secretogue carbachol), “increased the effect of omeprazole”. The half-life of omeprazole entry in data set [1] (administered with cimetidine (FIG. 11)) is given as “three”. In addition, the half-life in data set [1] (setting [3]) is 1.8 h; in data set [1] (oral, given as OME-IR 120 mg+Cimetidine 200 mg) it was 2.1 h; in data set [1] (setting [4]), 1.8 h; in data set [1] (setting [5]), 1.8 h.
`COc1ccc2[nH]c([S+]([O-])Cc3ncc(C)c(OC)c3C)nc2n1` (stereo not shown) [tenatoprazole, 5-methoxy-2-[[(4-methoxy-3,5-dimethyl-2-pyridyl)methyl]sulfinyl]imidazo[4,5-b]pyridine]: the half-life in data set [1] (oral, 40 mg, 40 mg given alone) is 7 h; in data set [1] (setting [3]), 8.7 h; in data set [1] (setting [4]), 12.9 h; in data set [1] (setting [5]) it was 12.9 h.
In turn, `Cc1c(OCC(F)(F)F)ccnc1C[S+]([O-])c1nc2ccccc2[nH]1` (stereo not shown) [lansoprazole] showed a half-life in data set [1] (oral, given as OME-IR 80 mg+Lansoprazole IR 80 mg) of 3.1 h.

Usually half-life stands for the time in which the quantity being followed falls by half. Low readings indicate rapid decline, high ones slow decline.
